Measured values: patent US11932624B2, “MDM2 degraders and uses thereof” (Kymera Therapeutics, Inc., priority 2020, dated 2024)

tested on: RS411 cells; experiment: Cell Viability CTG Assay (CellTiter Glo) in RS411 cells; format: cell-based; settings: Homo sapiens, RS4-11, 24 h, duration 1 day
Experimental: Example 23. Cell Viability CTG Assay
Day 0: Compounds or DMSO 60 nL were stamped to the cell plate as the platemap. RS411 cells were centrifuged at 800 rpm for 5 min, suspended with culture medium, and counted with Countess (Invitrogen). The cell density was adjusted to the recommend information. 30 μL of cell solution (1000 cells/well) was added to the assay plate as the platemap and 30 uL of media was added to column 2 and column 23 as the platemap. The plate was spun down briefly. The final concentration of the compounds started at 10 μM (3 fold dilution and 11 doses) and final DMSO concentration was 0.2%. The plate was spun down briefly and incubated at 37° C., 5% CO2 for 1-4 days.
30 μL CellTiter Glo reagent was added to each well and the plate was centrifuged at 1000 rpm for 30 sec. The plate was shaken for 1 min and centrifuged at 1000 rpm for 30 sec. The plate was incubated at RT for 10 min to stabilize the luminescent signal and the luminescence was read by EnVision.
The letter codes for IC50 indicate the concentration of compound required to affect 50% of cells: A (<0.05 μM), B (0.05-0.1 μM), C (0.1-0.5 μM), D (0.5-1.0 μM), and E (>1.0 μM).

Compound	IC50
Cn1c(=O)n(C2CCC(=O)NC2=O)c2ccc(C#CC3CCN(C(=O)[C@H]4CC[C@H](NC(=O)[C@@H]5NC6(CCC(C)(C)CC6)[C@@]6(C(=O)Nc7cc(Cl)ccc76)[C@H]5c5cccc(Cl)c5F)CO4)CC3)cc21 (stereo partly shown) [I-83]	< 50 nM
COc1cc2c(cc1OC(C)C)C(c1ccc(Cl)cc1)N(c1ccc(N(C)CC3CCN(CCCCCCc4cccc5c4n(C)c(=O)n5C4CCC(=O)NC4=O)CC3)cc1)C(=O)C2 (stereo not shown) [I-84, 3-[4-[6-[4-[[4-[1-(4-Chlorophenyl)-7-isopropoxy-6-methoxy-3-oxo-1,4-dihydroisoquinolin-2-yl]-N-methylanilino]methyl]-1-piperidyl]hexyl]-3-methyl-2-oxo-benzimidazol-1-yl]piperidine-2,6-dione]	< 50 nM
COc1cc2c(cc1OC(C)C)C(c1ccc(Cl)cc1)N(c1ccc(N(C)CC3CCN(CCCCCCc4ccc5c(c4)n(C)c(=O)n5C4CCC(=O)NC4=O)CC3)cc1)C(=O)C2 (stereo not shown) [I-86]	< 50 nM
Cn1c(=O)n(C2CCC(=O)NC2=O)c2ccc(C#CC3CN(C(=O)[C@H]4C[C@H](NC(=O)[C@@H]5NC6(CCCCC6)[C@@]6(C(=O)Nc7cc(Cl)ccc76)[C@H]5c5cccc(Cl)c5F)C4)C3)cc21 (stereo partly drawn) [I-89, (3′R,4'S,5′R)-6″-chloro-4′-(3-chloro-2-fluorophenyl)-N-((1r,3R)-3-(3-((1-(2,6-dioxopiperidin-3-yl)-3-methyl-2-oxo-2,3-dihydro-1H-benzo[d]imidazol-5-yl)ethynyl)azetidine-1-carbonyl)cyclobutyl)-2″-oxodispiro[cyclohexane-1,2′-pyrrolidine-3′,3″-indoline]-5′-carboxamide]	< 50 nM
CCCCCC1N(c2ccc(C(=O)O)cc2OC)C(=O)[C@H]2[C@H](c3cccc(Cl)c3F)[C@@](C#N)(c3ccc(Cl)cc3F)[C@H](CC(C)(C)C)N12 (stereo partly drawn) [I-91, 4-[(5S,6R,7S,7aR)-7-(3-chloro-2-fluoro-phenyl)-6-(4-chloro-2-fluoro-phenyl)-6-cyano-5-(2,2-dimethylpropyl)-1-oxo-3-pentyl-3,5,7,7a-tetrahydropyrrolo[1,2-c]imidazol-2-yl]-3-methoxy-benzoic acid]	> 1000 nM
COc1cc2c(cc1OC(C)C)C(c1ccc(Cl)cc1)N(c1ccc(N(C)C[C@H]3CC[C@H](NCC(=O)NCCCCCc4ccc5c(c4)n(C)c(=O)n5C4CCC(=O)NC4=O)CC3)cc1)C(=O)C2 (stereo partly shown) [I-92, 2-[[4-[[4-[1-(4-Chlorophenyl)-7-isopropoxy-6-methoxy-3-oxo-1,4-dihydroisoquinolin-2-yl]-N-methyl-anilino]methyl]cyclohexyl]amino]-N-[5-[1-(2,6-dioxo-3-piperidyl)-3-methyl-2-oxo-benzimidazol-5-yl]pentyl]acetamide]	< 50 nM
CN(CCCCCc1ccc2c(c1)n(C)c(=O)n2C1CCC(=O)NC1=O)C[C@H]1CC[C@H](NC(=O)[C@@H]2NC3(CCCCC3)[C@@]3(C(=O)Nc4cc(Cl)ccc43)[C@H]2c2cccc(Cl)c2F)CC1 (stereo partly shown) [I-93]	< 50 nM
Cn1c(=O)n(C2CCC(=O)NC2=O)c2ccc(C(=O)CC3CCN(C(=O)[C@H]4CC[C@H](NC(=O)[C@@H]5NC6(CCCCC6)[C@@]6(C(=O)Nc7cc(Cl)ccc76)[C@H]5c5cccc(Cl)c5F)CC4)CC3)cc21 (stereo partly shown) [I-94]	< 50 nM
Cn1c(=O)n(C2CCC(=O)NC2=O)c2ccc(CCCCCNC(=O)[C@@H]3CC[C@@H](NC(=O)[C@@H]4NC5(CCC(C)(C)CC5)[C@@]5(C(=O)Nc6cc(Cl)ccc65)[C@H]4c4cccc(Cl)c4F)CO3)cc21 (stereo partly shown) [I-98]	< 50 nM
CN(CCCCCc1ccc2c(c1)n(C)c(=O)n2C1CCC(=O)NC1=O)Cc1ccc(NC(=O)[C@@H]2NC3(CCCCC3)[C@@]3(C(=O)Nc4cc(Cl)ccc43)[C@H]2c2cccc(Cl)c2F)cc1 (stereo partly shown) [I-99]	< 50 nM
Cn1c(=O)n(C2CCC(=O)NC2=O)c2ccc(C#CC3CN(C(=O)[C@H]4C[C@H](NC(=O)[C@@H]5NC6(CCC(C)(C)CC6)[C@@]6(C(=O)Nc7cc(Cl)ccc76)[C@H]5c5cccc(Cl)c5F)C4)C3)cc21 (stereo partly shown) [I-100]	< 50 nM
O=C1CCN(c2cnc3cc(C#CCOC4CCN(C(=O)c5ccc(NC(=O)[C@@H]6NC7(CCCCC7)[C@@]7(C(=O)Nc8cc(Cl)ccc87)[C@H]6c6cccc(Cl)c6F)cc5)CC4)ccn23)C(=O)N1 [I-106]	< 50 nM
Cn1c(=O)n(C2CCC(=O)NC2=O)c2ccc(C#CCN3CCN(Cc4ccc(NC(=O)[C@@H]5NC6(CCCCC6)[C@@]6(C(=O)Nc7cc(Cl)ccc76)[C@H]5c5cccc(Cl)c5F)cc4)CC3)cc21 (stereo partly shown) [I-110]	< 50 nM
Cn1c(=O)n(C2CCC(=O)NC2=O)c2cccc(CN3CCC(OC4CCN(C[C@H]5CC[C@H](NC(=O)[C@@H]6NC7(CCC(C)(C)CC7)[C@@]7(C(=O)Nc8cc(Cl)ccc87)[C@H]6c6cccc(Cl)c6F)CC5)CC4)CC3)c21 (stereo partly shown) [I-111]	< 50 nM
Cn1c(=O)n(C2CCC(=O)NC2=O)c2cccc(CN3CCC(OC4CCN(C[C@H]5CC[C@H](NC(=O)[C@@H]6NC7(CCCCC7)[C@@]7(C(=O)Nc8cc(Cl)ccc87)[C@H]6c6cccc(Cl)c6F)CC5)CC4)CC3)c21 (stereo partly shown) [I-113]	< 50 nM
Cn1c(=O)n(C2CCC(=O)NC2=O)c2ccc(CCCN3CCN(C[C@H]4CC[C@H](NC(=O)[C@@H]5NC6(CCCCC6)[C@@]6(C(=O)Nc7cc(Cl)ccc76)[C@H]5c5cccc(Cl)c5F)CC4)CC3)cc21 (stereo partly shown) [I-114]	< 50 nM
Cn1c(=O)n(C2CCC(=O)NC2=O)c2cccc(C3CCN(Cc4ccc(NC(=O)[C@@H]5NC6(CCCCC6)[C@@]6(C(=O)Nc7cc(Cl)ccc76)[C@H]5c5cccc(Cl)c5F)cc4)CC3)c21 (stereo partly shown) [I-115]	< 50 nM
Cn1c(=O)n(C2CCC(=O)NC2=O)c2cccc(C#CC3CCN(Cc4ccc(CNC(=O)[C@@H]5NC6(CCCCC6)[C@@]6(C(=O)Nc7cc(Cl)ccc76)[C@H]5c5cccc(Cl)c5F)cc4)CC3)c21 (stereo partly shown) [I-116]	> 1000 nM
Cn1c(=O)n(C2CCC(=O)NC2=O)c2ccc(CN3CCC(OC4CCN(C[C@H]5CC[C@H](NC(=O)[C@@H]6NC7(CCCCC7)[C@@]7(C(=O)Nc8cc(Cl)ccc87)[C@H]6c6cccc(Cl)c6F)CC5)CC4)CC3)cc21 (stereo partly shown) [I-117]	< 50 nM
Cn1c(=O)n(C2CCC(=O)NC2=O)c2cccc(/C=C/C3CCN(C[C@H]4CC[C@H](CNC(=O)[C@@H]5NC6(CCCCC6)[C@@]6(C(=O)Nc7cc(Cl)ccc76)[C@H]5c5cccc(Cl)c5F)CC4)CC3)c21 (stereo partly shown) [I-118]	50 to 100 nM
O=C1CCN(c2cnc3cc(C#CC4CCN(C[C@H]5CC[C@H](NC(=O)[C@@H]6NC7(CCCCC7)[C@@]7(C(=O)Nc8cc(Cl)ccc87)[C@H]6c6cccc(Cl)c6F)CC5)CC4)ccn23)C(=O)N1 [I-119]	< 50 nM
Cn1c(=O)n(C2CCC(=O)NC2=O)c2ccc(C#CCCCNC(=O)[C@H]3CC[C@H](N(C)C(=O)[C@@H]4NC5(CCCCC5)[C@@]5(C(=O)Nc6cc(Cl)ccc65)[C@H]4c4cccc(Cl)c4F)CC3)cc21 (stereo partly shown) [I-120]	> 1000 nM
Cn1c(=O)n(C2CCC(=O)NC2=O)c2ccc(CCCN3CCN(Cc4ccc(NC(=O)[C@@H]5NC6(CCCCC6)[C@@]6(C(=O)Nc7cc(Cl)ccc76)[C@H]5c5cccc(Cl)c5F)cc4)CC3)cc21 (stereo partly shown) [I-121]	< 50 nM

More lines, now with the values ahead:

IC50	Compound
< 50 nM	COc1cc2c(cc1OC(C)C)C(c1ccc(Cl)cc1)N(c1ccc(N(C)C[C@H]3CC[C@H](N(C)CCCCCc4ccc5c(c4)n(C)c(=O)n5C4CCC(=O)NC4=O)CC3)cc1)C(=O)C2 (stereo partly shown) [I-85]
< 50 nM	COc1cc2c(cc1OC(C)C)C(c1ccc(Cl)cc1)N(c1ccc(N(C)C[C@H]3CC[C@H](N(C)CCCCCc4cccc5c4n(C)c(=O)n5C4CCC(=O)NC4=O)CC3)cc1)C(=O)C2 (stereo partly shown) [I-87]
> 1000 nM	CN(C(=O)[C@@H]1NC2(CCCCC2)[C@@]2(C(=O)Nc3cc(Cl)ccc32)[C@H]1c1cccc(Cl)c1F)c1ccc(C(=O)NCCCCCc2ccc3c(c2)n(C)c(=O)n3C2CCC(=O)NC2=O)cc1 (stereo partly shown) [I-96]
< 50 nM	Cn1c(=O)n(C2CCC(=O)NC2=O)c2ccc(CCCCCNC(=O)c3ccc(NC(=O)[C@@H]4NC5(CCCCC5)[C@@]5(C(=O)Nc6cc(Cl)ccc65)[C@H]4c4cccc(Cl)c4F)cc3)cc21 (stereo partly shown) [I-97]
< 50 nM	CN1[C@@H](C(=O)Nc2ccc(C(=O)NCCCCCc3ccc4c(c3)n(C)c(=O)n4C3CCC(=O)NC3=O)cc2)[C@H](c2cccc(Cl)c2F)[C@]2(C(=O)Nc3cc(Cl)ccc32)C12CCCCC2 (stereo partly shown) [I-101]
< 50 nM	Cn1c(=O)n(C2CCC(=O)NC2=O)c2ccc(CCC3CCN(Cc4ccc(NC(=O)[C@@H]5NC6(CCCCC6)[C@@]6(C(=O)Nc7cc(Cl)ccc76)[C@H]5c5cccc(Cl)c5F)cc4)CC3)cc21 (stereo partly shown) [I-102]
< 50 nM	Cn1c(=O)n(C2CCC(=O)NC2=O)c2cccc(C3CCN(C[C@H]4CC[C@H](NC(=O)[C@@H]5NC6(CCC(C)(C)CC6)[C@@]6(C(=O)Nc7cc(Cl)ccc76)[C@H]5c5cccc(Cl)c5F)CC4)CC3)c21 (stereo partly shown) [I-103]
> 1000 nM	Cn1c(=O)n(C2CCC(=O)NC2=O)c2ccc(CCCCCNC(=O)[C@H]3CC[C@H](N(C)C(=O)[C@@H]4NC5(CCCCC5)[C@@]5(C(=O)Nc6cc(Cl)ccc65)[C@H]4c4cccc(Cl)c4F)CC3)cc21 (stereo partly shown) [I-105]
< 50 nM	Cn1c(=O)n(C2CCC(=O)NC2=O)c2cccc(C3CCN(C[C@H]4CC[C@H](NC(=O)[C@@H]5NC6(CCCCC6)[C@@]6(C(=O)Nc7cc(Cl)ccc76)[C@H]5c5cccc(Cl)c5F)CC4)CC3)c21 (stereo partly shown) [I-109]
< 50 nM	Cn1c(=O)n(C2CCC(=O)NC2=O)c2cccc(CCC3CC4(CCN(C[C@H]5CC[C@H](NC(=O)[C@@H]6NC7(CCCCC7)[C@@]7(C(=O)Nc8cc(Cl)ccc87)[C@H]6c6cccc(Cl)c6F)CC5)CC4)C3)c21 (stereo partly shown) [I-112]
< 50 nM	Cn1c(=O)n(C2CCC(=O)NC2=O)c2ccc(C#CC3CN(C[C@H]4C[C@H](NC(=O)[C@@H]5NC6(CCC(C)(C)CC6)[C@@]6(C(=O)Nc7cc(Cl)ccc76)[C@H]5c5cccc(Cl)c5F)C4)C3)cc21 (stereo partly shown) [I-122]
